One may read the IC50 as the point on the concentration scale where inhibition reaches its midpoint.

The values that follow come from publication PMC7927014, “Novel Small Molecule Hsp90/Cdc37 Interface Inhibitors Indirectly Target K-Ras-Signaling” (Cancers, 2021).

One assay concerns the target T1, Hsp90/Cdc37 (Homo sapiens, UniProt P07900).
T1 construct: The Hsp90/Cdc37 split Renilla luciferase assay using the full length Hsp90 for the compound screening was described previously; expressed in transfected cells; host or cells: HEK293 EBNA cells, cleared lysates
Kind of assay: Hsp90/Cdc37 split Renilla luciferase assay, full length Hsp90 (cell lysate; IC50 and 20 μM validation). It counts as biochemical. As to conditions: for IC50: full length Hsp90, split Renilla luciferase assay, cell lysate; for normalized RLU / Average RLU: MolPort Screening-3, tested concentration of drugs 20 μM; for normalized RLU: RLU normalized to DMSO (=1.00); for Average RLU: average of 3 wells (DMSO 248028). The protocol: In the second in silico screening of the FIMM database, we employed the four identified chemical scaffolds (Figure S2B) for the visual inspection of the FIMM compound library. […] All of the purchased compounds were validated in vitro at 20 μM using the split Renilla luciferase assay.
(§1) The Hsp90/Cdc37 split Renilla luciferase assay using the full length Hsp90 for the compound screening was described previously. […] After 48 h, the cells were trypsinized and washed with PBS. The harvested cells were lysed in 1 mL of the 1x lysis buffer provided in the Renilla Luciferase Reporter Assay System Kit from Promega (cat. E2820), and were incubated on ice for 10 min. The cell lysates were then cleared by centrifugation at 13,000× g for 1 min. […] After this, the screening/test compounds or DMSO—as indicated—were added to each well. In total, 5 µL NRL-Hsp90- or NRL-N-Hsp90-lysate was added to each well, one row at a time. Subsequently, the plate was incubated for 5 min at room temperature (RT). […] Just before the reading, 20 µL assay buffer containing 2× Renilla luciferase substrate (coelenterazine) was added. For the FIMM screening, sample wells were read on a PHERAstar plate reader (BMG LABTECH) at a gain level of 4000, after 10 s shaking, using a hypomorph of NRL-Hsp90. For the subsequent validations of the compounds, sample wells with the above-described assay constructs were read using a synergy H1 Hybrid Multi-Mode reader (BioTek) in the luminescence detection mode, as described previously in detail.

For the next assay, the system named is MDA-MB-231 cells. The assay can be described thus: 2D cell proliferation (alamarBlue). Type of assay: cell-based. As to conditions: Homo sapiens, MDA-MB-231, 72 h. The protocol: Per well, 500–700 cells were seeded in 96-well flat bottom culture plates in 100 µL. After 24 h, the cells were treated with 0.1% DMSO vehicle control or test compounds diluted in a medium using a 1:2 dilution-series, starting at 100 µM. The plates were further incubated for 72 h. The cell viability was measured after the addition of 10% alamarBlue reagent per well (cat. no. DAL1100, Thermo Fisher Scientific). The fluorescence intensity (excitation 560 nm and emission 590 nm) was measured after 4 h by the use of a H1 Hybrid Multi-Mode reader.
(The colour change of resazurin is a common sign of viable cells or microbes.)

In another assay the test system is MDA-MB-231 microtumors. The assay can be described thus: Chick chorioallantoic membrane (CAM) microtumor assay. It counts as in vivo, chick embryo. The following applies: 5 days. The protocol:
The fertilized eggs were incubated at 37 °C in a 55% to 60% humidified egg hatcher incubator (MG100, Fiem). After 8 days, 2 million MDA-MB-231 cells were resuspended in 1× PBS and Matrigel (BD Biosciences) at a ratio of 1:1, and were then deposited within sterilized 7 mm diameter plastic rings cut from a plastic pipette (cat. no. LW4111, Alpha Laboratories Limited) on a surface of chicken embryo CAM. The xenografted tumors were treated with 20 µL 0.1% DMSO vehicle control or the test compound diluted in 1× PBS once a day, starting from 24 h after cell seeding. The microtumors were harvested after 5 days of treatment. The microtumors were collected in pre-weighted 1.5 mL Eppendorf tubes containing 500 µL PBS, and the tumor mass was determined by the difference of the weights.

Assay [1] deals with Hsp90 clients (C-Raf, Akt, ERK). Kind of assay: Western blotting of Hsp90 client proteins. Type of assay: cell-based. The following applies: Western blot, 24 h; SK-BR-3, MDA-MB-231, MIA PaCa-2, HCC-44 (conglobatin A: MDA-MB-231). The protocol: The cells were trypsinized, washed with PBS, and lysed in RIPA buffer (cat no. 89900, ThermoFisher Scientific) containing protease and phosphatase inhibitors (cat. no. A32959, ThermoFisher Scientific) and 1 mM phenylmethylsulfonyl fluoride (PMSF). The cells in the RIPA buffer were placed on ice for 20 min, and were then sonicated in ice cold water for 5 min. The lysates were centrifuged at 4 °C, and their protein was quantified using a BCA kit (cat. no. 23225, ThermoFisher Scientific). Equal amounts of protein were separated by 10% SDS-PAGE, and were then transferred onto a nitrocellulose membrane (cat. no. NBA 083C001EA, Protran) using a wet transfer system (Bio-Rad) or semidry Transferblot Turbo Transfer System (Bio-Rad). After the transfer, the membranes were blocked for 30 min in 5% skimmed milk dissolved in 1× TBST, and then incubated with 1:2000 primary antibodies in 5% BSA in TBST at 4 °C overnight.
The primary antibodies against HER-2 (cat no. MA5-140579) and Hsp70 (cat. no. MA3-006) were purchased from ThermoFisher Scientific; C-Raf (cat. no. sc-133); the galectin-3 (cat. no. sc-20157), Hsp90 (cat. no. sc-69703), Cdc37 (cat. no. sc-13129) were obtained from Santa Cruz Biotechnology; the Akt (cat. no. 9272S), ERK1/2 (cat. no. 9102S), and pERK1/2 (cat. no. 9101S) were obtained from Cell Signaling Technology; the HIF-1α (cat. no. NB-100-134) was obtained from Novus Biologicals; and the β-actin (cat. no. A1978) was obtained from Sigma-Aldrich.
The next day, the membranes were washed three times in TBST for 10 min, and then incubated with secondary antibodies (1:5000) diluted in 5% skimmed milk in TBST for 1 h at RT. As secondary antibodies, we employed HRP-conjugated anti-mouse (cat. no. sc-2954, Santa Cruz Biotechnology) and anti-rabbit antibodies (cat. no. HAF008, R&D System). The protein bands were detected with a ChemiDoc MP instrument (Bio-Rad) after treatment with an ECL reagent (cat. no. 170-5061, BioRad). All of the antigens and molecular weights in kDa are labelled next to the blots on the figures. Uncropped Western blot data are attached as Figure S6.
(In general: Immunoblotting shows a protein as a band on a membrane.)

In a further assay the target is T2, N-Hsp90/Cdc37 (Homo sapiens, UniProt P07900).
T2 construct: only the N-terminal ATP-ase domain of Hsp90 (N-Hsp90, residues 1-223); expressed in transfected cells; host or cells: HEK293 EBNA cells, cleared lysates
Kind of assay: N-Hsp90/Cdc37 split Renilla luciferase assay (N-terminal Hsp90 fragment, residues 1-223). Type of assay: biochemical. As to conditions: cell lysate. The protocol: as §1

The structures appear in SMILES notation.

For the compound `CCOc1ccc(C(=O)c2ccc(O)c(O)c2O)cc1` [×1540, 2,3,4-TRIHYDROXY-4'-ETHOXYBENZOPHENONE], the IC50 on Hsp90/Cdc37 amounted to 44 ± 18 µM; in the assay on MDA-MB-231 cells it was 29 ± 3 µM; on N-Hsp90/Cdc37, 44 ± 9 µM. Also, in the assay with MDA-MB-231 microtumors (MDA-MB-231, 20 μM), the “microtumor growth on CAM” value is recorded as “significantly reduced”. Further, the “expression of Hsp90 clients (C-Raf, Akt, ERK; pERK)” value (from here on “expression of Hsp90 clients”) in assay [1] is recorded as “dose-dependently decreased”.
As to `C/C1=C\[C@H](C)C[C@H](C)[C@H](Cc2cnco2)OC(=O)/C(C)=C/[C@H](C)C[C@H](C)[C@H](Cc2cnco2)OC1=O` [conglobatin A, reference compound], the “normalized RLU” value at Hsp90/Cdc37 is reported as 0.40. Further, the “Average RLU” value on Hsp90/Cdc37 was found to be 98821 RLU. Moreover, the results for the IC50 at Hsp90/Cdc37, with MDA-MB-231 cells and at N-Hsp90/Cdc37 were 23 ± 6 µM, 32 ± 2 µM and 4.5 ± 0.8 µM, respectively. For the same compound, in the assay with MDA-MB-231 microtumors (MDA-MB-231, 10 μM), the “microtumor growth on CAM” value is listed as “significantly reduced”. Further, in assay [1], the “expression of Hsp90 clients” value was “decreased pERK and Akt levels”.
In the case of `N=C(CSS(=O)(=O)O)NCC12CC3CC(CC(C3)C1)C2` [×6506, [({N-[(adamantan-1-yl)methyl]carbamimidoyl}methyl)sulfanyl]sulfonic acid], at Hsp90/Cdc37, the “normalized RLU” value is 0.11, the “Average RLU” value is 26657 RLU and the IC50 turned out to be 5 ± 1 µM. This compound gave an IC50 in the assay on MDA-MB-231 cells of 32.6 ± 0.5 µM. In addition, the “microtumor growth on CAM” value in the assay with MDA-MB-231 microtumors (MDA-MB-231, 20 μM) was “significantly reduced”. Moreover, in assay [1], the “expression of Hsp90 clients” value was “dose-dependently decreased”. Further, on N-Hsp90/Cdc37, the IC50 was found to be 4.1 ± 0.4 µM.
